The source made the active and inactive calls. The rule behind the calls is not given here. Starred links: 1 amine or outer side, 2 acyl side, 3 side chain; linkers in the order of their positions; H or OH if unused. Non-standard residues stand in square brackets, D forms with d. Residues, ends and D or L forms follow the SMILES beside them. X3 = O=C(CCC(=O)[*:2])[C@H](Cc1ccccc1)N[*:1]; X4 = O=C(C/C=C/[C@H](Cc1ccccc1)N[*:1])[*:2]; X1 = O=C(COC[C@H](Cc1ccccc1)N[*:1])[*:2]; NMeF = CN[C@@H](Cc1ccccc1)C(=O)O; pGlu = O=C1CC[C@@H](C(=O)O)N1; AEA = NCCOCC(=O)O; Ava = NCCCCC(=O)O; Sar = CNCC(=O)O
Experiments:
Cavia porcellus [1] = organism: Cavia porcellus; experiment: Relative potency to that of [D-Ala2,Leu5]enkephalinamide in guinea pig ileum; assay type: functional
Mus musculus [2] = organism: Mus musculus; experiment: Relative potency to that of [D-Ala2, Leu5]-enkaphalinamide in mouse vas deferens; assay type: functional
[3] = Ratio of IC50 measured in MVD to that of GPI.; assay type: functional
Mus musculus [4] = organism: Mus musculus; experiment: Inhibitory effect was measured on mouse vas deferens; assay type: functional
Cavia porcellus [5] = organism: Cavia porcellus; experiment: Inhibitory effect was measured on guinea pig ileum for maximal contraction; assay type: functional
Cavia porcellus [6] = organism: Cavia porcellus; experiment: Relative potency to that of [pGlu6]SP6-11 in guinea pig ileum; assay type: functional
Cavia porcellus [7] = organism: Cavia porcellus; experiment: Effective concentration was determined using guinea pig ileum; assay type: functional
Rattus norvegicus = organism: Rattus norvegicus; experiment: Inhibitory effect was measured on electrically stimulated rat vas deferens contraction; assay type: functional
[8] = Ratio of NK-1 receptor to that of NK-3 receptor; assay type: functional
Cavia porcellus [9] = organism: Cavia porcellus; experiment: Effective dose was measured on guinea pig ileum for maximal contraction; assay type: functional
Neuromedin-K receptor [10] = molecular target: T1, Neuromedin-K receptor (Cavia porcellus, UniProt P30098); experiment: Effective dose was measured on NK3 receptors of guinea pig ileum for maximal contraction in the presence of 10e-7 M substance P methyl ester.; assay type: functional, tissue-based
T1 sequence (P30098 whole entry): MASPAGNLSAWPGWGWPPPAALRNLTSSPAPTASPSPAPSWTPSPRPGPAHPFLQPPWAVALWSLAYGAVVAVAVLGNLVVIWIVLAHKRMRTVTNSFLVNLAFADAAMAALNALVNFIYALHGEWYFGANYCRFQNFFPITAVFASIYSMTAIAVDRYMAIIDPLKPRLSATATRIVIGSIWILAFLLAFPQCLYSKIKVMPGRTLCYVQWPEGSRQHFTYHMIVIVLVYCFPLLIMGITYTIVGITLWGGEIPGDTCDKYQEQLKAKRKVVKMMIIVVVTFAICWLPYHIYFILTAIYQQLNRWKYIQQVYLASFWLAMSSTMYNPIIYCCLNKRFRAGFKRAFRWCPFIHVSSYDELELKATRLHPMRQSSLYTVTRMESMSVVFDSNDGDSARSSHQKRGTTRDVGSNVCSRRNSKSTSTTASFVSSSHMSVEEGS

Substance-P receptor = Substance-P receptor (Cavia porcellus, UniProt P30547); experiment: Effective dose was measured on NK1 receptors of guinea pig ileum for maximal contraction in the presence of 3*10e-7 M atropine; assay type: functional, tissue-based
Sequence of Substance-P receptor (P30547 whole entry): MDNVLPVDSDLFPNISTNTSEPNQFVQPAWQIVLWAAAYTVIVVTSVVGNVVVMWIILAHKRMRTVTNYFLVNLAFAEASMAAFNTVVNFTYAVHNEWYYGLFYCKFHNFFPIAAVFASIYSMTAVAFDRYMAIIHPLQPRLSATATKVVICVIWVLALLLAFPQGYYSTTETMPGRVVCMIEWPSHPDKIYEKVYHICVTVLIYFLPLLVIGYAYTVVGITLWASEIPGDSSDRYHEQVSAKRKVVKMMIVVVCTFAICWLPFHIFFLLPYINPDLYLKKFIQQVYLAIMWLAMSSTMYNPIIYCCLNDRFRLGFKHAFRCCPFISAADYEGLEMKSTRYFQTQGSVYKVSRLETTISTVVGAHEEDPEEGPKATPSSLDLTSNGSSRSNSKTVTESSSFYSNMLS

Cavia porcellus [11] = organism: Cavia porcellus; experiment: Relative potency as ratio of the EC50 value of analogue to that of [PGlu6]SP6-11 in achykinin receptor 3 in guinea pig ileum; assay type: functional
[12] = molecular target: Delta-type opioid receptor (Rattus norvegicus) (UniProt P33533); experiment: It is the ratio of Ki value for delta receptor to that of opioid receptor mu
Sequence of Delta-type opioid receptor (Rattus norvegicus) (P33533 whole entry): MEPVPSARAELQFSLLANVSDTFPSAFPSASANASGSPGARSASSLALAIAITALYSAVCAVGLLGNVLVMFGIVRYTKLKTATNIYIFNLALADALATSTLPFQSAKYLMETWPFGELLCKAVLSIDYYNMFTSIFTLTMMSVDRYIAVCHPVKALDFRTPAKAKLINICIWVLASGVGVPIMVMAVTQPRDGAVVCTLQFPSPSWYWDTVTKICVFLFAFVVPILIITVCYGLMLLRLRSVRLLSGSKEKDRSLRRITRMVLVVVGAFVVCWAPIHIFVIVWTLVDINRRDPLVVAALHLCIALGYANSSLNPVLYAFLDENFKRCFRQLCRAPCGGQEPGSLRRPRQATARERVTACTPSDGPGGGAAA

Mu-type opioid receptor = Mu-type opioid receptor (Rattus norvegicus, UniProt P33535); experiment: Binding affinity to opioid receptor mu was determined in rat brain using [3H]DAGO as radioligand; assay type: tissue-based
Sequence of Mu-type opioid receptor (P33535 whole entry): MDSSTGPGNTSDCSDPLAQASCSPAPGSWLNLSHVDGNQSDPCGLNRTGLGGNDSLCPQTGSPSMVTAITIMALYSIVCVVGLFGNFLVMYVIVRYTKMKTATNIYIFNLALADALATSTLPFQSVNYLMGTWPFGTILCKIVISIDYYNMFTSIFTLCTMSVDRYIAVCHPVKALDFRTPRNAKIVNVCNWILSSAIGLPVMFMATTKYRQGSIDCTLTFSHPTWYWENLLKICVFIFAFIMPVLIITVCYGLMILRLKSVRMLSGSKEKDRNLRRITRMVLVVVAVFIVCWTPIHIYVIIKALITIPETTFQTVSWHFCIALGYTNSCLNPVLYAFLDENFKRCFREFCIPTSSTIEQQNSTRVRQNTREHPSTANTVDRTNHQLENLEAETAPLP

[13] = molecular target: Delta-type opioid receptor (Rattus norvegicus, UniProt P33533); experiment: Binding affinity to opioid receptor delta was determined in rat brain using [3H]DSTBULET as radioligand; assay type: tissue-based
Sequence of Delta-type opioid receptor (P33533 whole entry): as the sequence (P33533 whole entry) above

Cavia porcellus [14] = organism: Cavia porcellus; experiment: Relative potency to that of [DAla2,Leu5]enkaphalinamide.; assay type: functional
Mus musculus [15] = organism: Mus musculus; experiment: Inhibitory effect was measured on mouse vas deferens; c = Did not show agonist activity up to 10E-5 M; assay type: functional
[16] = Ratio of IC50 measured in MVD to that of GPI; c= Did not show agonist activity up to 10E-5 M.; assay type: functional
Mus musculus [17] = organism: Mus musculus; experiment: Relative potency to that of [D-Ala2, Leu5]-enkaphalinamide in mouse vas deferens; c = Did not show agonist activity up to 10E-5 M; assay type: functional
[18] = molecular target: T2, Neuromedin-K receptor (Cavia porcellus) (UniProt P30098); experiment: Relative potency as ratio of the EC50 value of analogue to that of [PGlu6]SP6-11 in tachykinin receptor 3 in guinea pig ileum; assay type: functional, tissue-based
T2 sequence (whole entry): T1 sequence (P30098 whole entry)

Neuromedin-K receptor [19] = molecular target: T1, Neuromedin-K receptor; experiment: Effective dose was measured on NK3 receptors of guinea pig ileum for maximal contraction in the presence of 10e-7 M substance P methyl ester; assay type: functional, tissue-based

CC(C)C[C@H](NC(=O)[C@H](Cc1ccccc1)NC(=O)CNC(=O)CSC[C@@H](N)Cc1ccc(O)cc1)C(=O)O
Relative potency (Cavia porcellus [1]): 24.1%

CSCC[C@H](NC(=O)[C@H](Cc1ccccc1)NC(=O)CNC(=O)[C@@H](C)NC(=O)[C@@H](N)Cc1ccc(O)cc1)C(N)=O
Relative potency (Mus musculus [2]): 2.8%
Ratio [3]: 0.14
Relative potency (Cavia porcellus [1]): 1.1%
IC50 (Mus musculus [4]): 0.0042 µM
IC50 (Cavia porcellus [5]): 0.029 µM

CC(C)C[C@H](NC(=O)[C@H](Cc1ccccc1)NC(=O)C/N=C(\S)CNC(=O)[C@@H](N)Cc1ccc(O)cc1)C(=O)O
Relative potency (Cavia porcellus [1]): 400%

CSCC[C@H](NC(=O)[C@H](CC(C)C)NC(=O)CN(C)C(=O)[C@H](Cc1ccccc1)NC(=O)[C@H](Cc1ccccc1)NC(=O)[C@@H]1CCC(=O)N1)C(N)=O ([pGlu]FF[Sar]LM-NH2)
Relative potency (Cavia porcellus [6]): 80%
EC50 (Cavia porcellus [7]): 0.002 µM

CSCC[C@H](NC(=O)[C@H](Cc1ccccc1)NC(=O)CNCCNC(=O)[C@@H](N)Cc1ccc(O)cc1)C(N)=O
Relative potency (Cavia porcellus [1]): 0.3%

N[C@@H](Cc1ccc(O)cc1)C(=O)NC/C=C/CC(=O)N[C@@H](Cc1ccccc1)C(=O)N1CCC[C@H]1C(=O)O
Relative potency (Cavia porcellus [1]): 0.1%

CSCC[C@H](NC(=O)[C@H](CC(C)C)NC(=O)CCC(=O)[C@H](Cc1ccccc1)NC(=O)[C@H](Cc1ccccc1)NC(=O)[C@@H]1CCC(=O)N1)C(N)=O ([pGlu]F[X3]LM-NH2)
Relative potency (Cavia porcellus [6]): 70%
EC50 (Cavia porcellus [7]): 0.002 µM

CSCC[C@H](NC(=O)[C@H](Cc1ccccc1)NC(=O)CNC(=O)CN(C)C(=O)[C@@H](N)Cc1ccc(O)cc1)C(=O)O
Relative potency (Cavia porcellus [1]): <2.1%

CSCC[C@H](NC(=O)[C@H](CC(C)C)NC(=O)CNC(=O)[C@H](Cc1ccccc1)N(C)C(=O)[C@H](Cc1ccccc1)NC(=O)[C@@H]1CCC(=O)N1)C(N)=O ([pGlu]F[NMeF]GLM-NH2)
EC50 (Rattus norvegicus): 20 µM
Ratio [8]: 670
EC50 (Cavia porcellus [9]): 0.0004 µM
EC50 (Neuromedin-K receptor [10]): 0.0009 µM
EC50 (Substance-P receptor): 0.6 µM
Relative potency (Cavia porcellus [11]): 555%

CC(C)C[C@H](NC(=O)[C@H](Cc1ccccc1)NC(=O)CNC(=O)COC[C@@H](N)Cc1ccc(O)cc1)C(N)=O
Relative potency (Mus musculus [2]): 0.13%
Ratio [12]: 2.12
Ki (Mu-type opioid receptor): 0.00369 µM
Ratio [3]: 3.12
Relative potency (Cavia porcellus [1]): 106%
IC50 (Mus musculus [4]): 0.092 µM
Ki [13]: 0.00778 µM
Relative potency (Cavia porcellus [14]): 1.06%
IC50 (Cavia porcellus [5]): 0.03 µM

CC(C)CC(NC(=O)[C@H](Cc1ccccc1)NC(=O)COC[C@@H](CO)NC(=O)C(N)Cc1ccc(O)cc1)C(=O)N[C@H](C(=O)O)[C@@H](C)O (stereo not given in full)
Relative potency (Mus musculus [2]): 21.8%
Ratio [3]: 0.0015
IC50 (Mus musculus [4]): 0.00054 µM
Relative potency (Cavia porcellus [14]): 0.09%
IC50 (Cavia porcellus [5]): 0.35 µM

CC(C)C[C@H](NC(=O)[C@H](Cc1ccccc1)NC(=O)COC[C@@H](C)NC(=O)[C@@H](N)Cc1ccc(O)cc1)C(N)=O
Relative potency (Mus musculus [2]): 1%
Ratio [3]: 0.37
IC50 (Mus musculus [4]): 0.0118 µM
Relative potency (Cavia porcellus [14]): 1%
IC50 (Cavia porcellus [5]): 0.032 µM

CSCC[C@H](NC(=O)[C@H](Cc1ccccc1)NC(=O)CNC(=O)CCC[C@H](N)Cc1ccc(O)cc1)C(N)=O
Relative potency (Cavia porcellus [1]): 3%

C[C@@H](NC(=O)[C@@H](N)Cc1ccc(O)cc1)C(=O)NCC(=O)N(C)[C@@H](Cc1ccccc1)C(=O)NCCO [DAMGO]
IC50 (Mus musculus [4]): 0.0515 µM
Ki [13]: 0.629 µM
IC50 (Cavia porcellus [5]): 0.018 µM

CSCC[C@H](NC(=O)[C@H](CC(C)C)NC(=O)C/C=C/[C@H](Cc1ccccc1)NC(=O)[C@H](Cc1ccccc1)NC(=O)[C@@H]1CCC(=O)N1)C(N)=O ([pGlu]F[X4]LM-NH2)
Relative potency (Cavia porcellus [6]): 24%
EC50 (Cavia porcellus [7]): 0.002 µM

CC(C)C[C@H](NC(=O)[C@H](Cc1ccccc1)NC(=O)COCCNC(=O)[C@@H](N)Cc1ccc(O)cc1)C(N)=O (H-Y[AEA]FL-NH2)
Ratio [12]: 6.66
IC50 (Mus musculus [15]): Not Active
Ki (Mu-type opioid receptor): 1.38 µM
Relative potency (Cavia porcellus [1]): 1.4%
Ratio [16]: inactive
Relative potency (Mus musculus [17]): inactive
Ki [13]: 9.2 µM
Relative potency (Cavia porcellus [14]): 0.014%
IC50 (Cavia porcellus [5]): 2.3 µM

CC(C)C[C@H](NC(=O)[C@H](Cc1ccccc1)NC(=O)CSCCNC(=O)[C@@H](N)Cc1ccc(O)cc1)C(=O)O
Relative potency (Cavia porcellus [1]): <1%

CSCC[C@H](NC(=O)[C@H](CC(C)C)NC(=O)CC(=O)N[C@H](Cc1ccccc1)NC(=O)[C@H](Cc1ccccc1)NC(=O)[C@@H]1CCC(=O)N1)C(N)=O
Relative potency (Cavia porcellus [6]): 22%
EC50 (Cavia porcellus [7]): 0.002 µM

CSCC[C@H](NC(=O)[C@H](Cc1ccccc1)NC(=O)CCCCNC(=O)[C@@H](N)Cc1ccc(O)cc1)C(N)=O (H-Y[Ava]FM-NH2)
Relative potency (Cavia porcellus [1]): <0.3%

CSCC[C@H](NC(=O)[C@H](CC(C)C)NC(=O)COC[C@H](Cc1ccccc1)NC(=O)[C@H](Cc1ccccc1)NC(=O)[C@@H]1CCC(=O)N1)C(N)=O ([pGlu]F[X1]LM-NH2)
EC50 (Rattus norvegicus): 2 µM
Ratio [8]: 3.16
Relative potency (Cavia porcellus [6]): 25%
EC50 (Cavia porcellus [9]): 0.0048 µM
EC50 (Neuromedin-K receptor [10]): 0.0125 µM
EC50 (Substance-P receptor): 0.0396 µM
EC50 (Cavia porcellus [7]): 0.002 µM
Relative potency [18]: 40%

COC(=O)[C@H](CC(C)C)NC(=O)[C@H](Cc1ccccc1)NC(=O)CNC(=O)C/C=C/[C@@H](N)Cc1ccc(O)cc1
Relative potency (Cavia porcellus [1]): 300%

CSCC[C@H](NC(=O)[C@H](Cc1ccccc1)NC(=O)CNC(=O)CNC[C@@H](N)Cc1ccc(O)cc1)C(N)=O
Relative potency (Cavia porcellus [1]): 56%

CSCC[C@H](NC(=O)[C@H](CC(C)C)NC(=O)CNC(=O)[C@H](Cc1ccccc1)NC(=O)[C@H](Cc1ccccc1)NC(=O)[C@@H]1CCC(=O)N1)C(N)=O ([pGlu]FFGLM-NH2)
EC50 (Rattus norvegicus): 20 µM
Ratio [8]: 0.44
EC50 (Cavia porcellus [9]): 0.0012 µM
EC50 (Neuromedin-K receptor [19]): 0.005 µM
EC50 (Substance-P receptor): 0.0022 µM
Relative potency [18]: 100%

CSCC[C@H](NC(=O)[C@H](Cc1ccccc1)NC(=O)CN(C)C(=O)CNC(=O)[C@@H](N)Cc1ccc(O)cc1)C(=O)O
Relative potency (Cavia porcellus [1]): 0.1%

Reference: ChEMBL document CHEMBL1125177, “Pseudopeptide analogues of substance P and leucine enkephalinamide containing the psi (CH2O) modification: synthesis and biological activity” (J Med Chem, 1991)
